Laboratory results: ChEMBL document CHEMBL5335819, “Discovery of an ellipticine derivative as TLR3 inhibitor against influenza A virus and SARS-CoV-2” (Bioorg Med Chem Lett, 2024)
Active and inactive are the calls of the source. No cut-off for these calls is given here.

Columns and labels:
MDCK = assay: Cytotoxicity against MDCK cells assessed as reduction in cell viability incubated for 48 hrs by MTT assay; assay type: toxicity, cell-based, Canis lupus familiaris; details: dog
[1] = Cytotoxicity against human A549 cells assessed as reduction in cell viability incubated for 48 hrs by MTT assay; assay type: toxicity, cell-based
[2] = Cytotoxicity against human BEAS-2B cells assessed as reduction in cell viability incubated for 48 hrs by MTT assay; assay type: toxicity, cell-based
[3] = Cytotoxicity against human HEK293T cells assessed as reduction in cell viability incubated for 48 hrs by MTT assay; assay type: toxicity, cell-based, HEK-293T
[4] = target: Toll-like receptor 3 (Homo sapiens) (UniProt O15455); assay: Inhibition of human TLR3 expressed in mouse RAW264.7 cells assessed as inhibition of NO production; assay type: cell-based
Toll-like receptor 3 (Homo sapiens), sequence (O15455 whole entry): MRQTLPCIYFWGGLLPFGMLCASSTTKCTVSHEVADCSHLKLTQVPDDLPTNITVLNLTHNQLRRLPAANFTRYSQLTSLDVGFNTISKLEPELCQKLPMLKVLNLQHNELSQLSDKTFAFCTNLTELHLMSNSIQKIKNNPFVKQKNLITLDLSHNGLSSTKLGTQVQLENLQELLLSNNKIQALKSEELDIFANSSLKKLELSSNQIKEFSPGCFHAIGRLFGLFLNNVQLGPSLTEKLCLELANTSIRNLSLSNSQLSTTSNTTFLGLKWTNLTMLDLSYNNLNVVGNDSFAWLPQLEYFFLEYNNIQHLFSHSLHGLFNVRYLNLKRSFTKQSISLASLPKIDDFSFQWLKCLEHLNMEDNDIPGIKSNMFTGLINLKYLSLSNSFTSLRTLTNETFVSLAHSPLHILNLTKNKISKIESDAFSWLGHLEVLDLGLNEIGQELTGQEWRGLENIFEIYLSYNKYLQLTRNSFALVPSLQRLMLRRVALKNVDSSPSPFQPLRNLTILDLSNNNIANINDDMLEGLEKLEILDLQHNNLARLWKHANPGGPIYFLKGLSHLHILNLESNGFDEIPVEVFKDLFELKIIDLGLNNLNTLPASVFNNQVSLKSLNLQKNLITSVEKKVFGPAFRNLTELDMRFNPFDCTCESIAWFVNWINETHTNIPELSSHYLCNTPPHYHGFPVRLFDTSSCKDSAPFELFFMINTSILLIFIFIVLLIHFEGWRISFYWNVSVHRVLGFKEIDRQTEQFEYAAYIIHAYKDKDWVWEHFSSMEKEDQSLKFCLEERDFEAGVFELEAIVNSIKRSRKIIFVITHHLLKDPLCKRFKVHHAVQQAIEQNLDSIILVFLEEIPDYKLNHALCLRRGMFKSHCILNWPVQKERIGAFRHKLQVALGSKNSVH

Influenza A virus [5] = assay: Antiviral activity against Influenza A virus A/WSN/33 (H1N1) infected in dog MDCK cells
Influenza A virus [6] = assay: Antiviral activity against Influenza A virus A/Puerto Rico/8/34 (H1N1) infected in dog MDCK cells
Influenza A virus [7] = assay: Antiviral activity against Influenza virus infected in human A549 cells assessed as reduction in virus induced IFN- beta mRNA expression level by qRT-PCR analysis; assay type: functional, organism-based
Influenza A virus [8] = assay: Antiviral activity against Influenza virus infected in human A549 cells assessed as reduction in virus induced IP-10 mRNA expression level by qRT-PCR analysis; assay type: functional, organism-based
Influenza A virus [9] = assay: Antiviral activity against Influenza virus infected in human A549 cells assessed as reduction in virus induced CCL-5 mRNA expression level by qRT-PCR analysis; assay type: functional, organism-based
A549 = assay: Reduction in Poly(I:C) induced TLR3 mRNA expression in human A549 cells by qRT-PCR analysis; assay type: functional, cell-based
Influenza A virus [10] = assay: Antiviral activity against Influenza virus infected in TLR3 knockdown human A549 cells assessed as reduction in NP protein level measured after 24 hrs by Western blot analysis; assay type: functional, organism-based
Influenza A virus [11] = assay: Antiviral activity against Influenza virus infected in TLR3 human knockdown A549 cells assessed as reduction in PB2 protein level measured after 24 hrs by Western blot analysis; assay type: functional, organism-based
Influenza A virus [12] = assay: Antiviral activity against Influenza virus infected in TLR3 knockdown human A549 cells by plaque assay; assay type: functional, organism-based
[13] = Cytotoxicity against African green monkey Vero E6 cells assessed as reduction in cell viability by CCK-8 assay; assay type: toxicity, cell-based, Vero C1008; details: chlorocebus sabaeus
SARS-CoV-2 [14] = assay: Antiviral activity against SARS-CoV-2 infected in African green monkey Vero E6 cells; assay type: functional, organism-based; details: Severe acute respiratory syndrome coronavirus 2, Vero C1008
SARS-CoV-2 [15] = assay: Antiviral activity against SARS-CoV-2 infected in African green monkey Vero E6 cells assessed as inhibition of NP protein by indirect immunofluoresence assay; assay type: functional, organism-based; details: Severe acute respiratory syndrome coronavirus 2

`COc1ccc2[nH]c3c(C)c4ccncc4c(C)c3c2c1` gave a CC50 (MDCK) of 5.33 µM, a CC50 at 48 h [1] of 5.33 µM and a CC50 at 48 h [2] of 5.33 µM. The CC50 at 48 h [3] was 5.33 µM, the inhibition [4] was “Active” and the IC50 (Influenza A virus [5]) was 0.33 µM. For the same compound, the IC50 (Influenza A virus [6]) was 0.14 µM, the Activity (Influenza A virus [7]) was “Active” and the Activity (Influenza A virus [8]) was “Active”. The Activity (Influenza A virus [9]) was “Active”, the Activity (A549) was “Active” and the Activity (Influenza A virus [10]) was “Active”. For the same compound, the Activity (Influenza A virus [11]) was “Active”, the Activity (Influenza A virus [12]) was “inactive” and the CC50 [13] was greater than 10 µM. For the same compound, the IC50 (SARS-CoV-2 [14]) was 0.43 µM and the Activity (SARS-CoV-2 [15]) was “Dose-Dependent Effect”.
